# Reference: US20110320392A1, “METHODS FOR PREDICTING CANCER RESPONSE TO EGFR INHIBITORS” (priority 2009, published 2011)
# What was measured:
# [1] = tested on: A549; assay: erlotinib sensitivity, apoptosis assay after 48 h; format: cell-based, human; details: NSCLC cell line A549, apoptosis assay after 48 h
# Experimental: (§1) The lung cancer cell lines were analyzed for in vitro sensitivity to the EGFR-tyrosine kinase inhibitor erlotinib. Cell lines were designated as “resistant” or sensitive” based upon an empirically determined threshold.
# (§2) The panel of NSCLC cell lines were separated into sensitive and resistant to erlotinib treatment using an apoptosis assay after 48 h as a measure (Balko et al., 2006). […] All cell lines were passaged as previously published and harvested after 2 days growth in serum-containing media (Balko et al., 2006). Lung cancer cell lines sensitive to erlotinib (H322 and HCC827) and resistant to erlotinib (H2122 and H820) and pancreatic cancer cell lines sensitive to erlotinib (Aspc-1 and Bxpc-3) and resistant to erlotinib (Mia PaCa-2 and Panc-1) were used for validation of the predictor, as previously described, again harvested after 2 days growth in serum-containing media (Tzeng et al., 2007).
# [2] = tested on: H1650; assay: erlotinib sensitivity, apoptosis assay after 48 h; format: cell-based, human; details: NSCLC cell line H1650, apoptosis assay after 48 h
# Experimental: as §1, §2
# [3] = tested on: H1975; assay: erlotinib sensitivity, apoptosis assay after 48 h; format: cell-based, human; details: NSCLC cell line H1975, apoptosis assay after 48 h
# Experimental: as §1, §2
# [4] = tested on: H3255; assay: erlotinib sensitivity, apoptosis assay after 48 h; format: cell-based, human; details: NSCLC cell line H3255, apoptosis assay after 48 h
# Experimental: as §1, §2
# [5] = tested on: H358; assay: erlotinib sensitivity, apoptosis assay after 48 h; format: cell-based, human; details: NSCLC cell line H358, apoptosis assay after 48 h
# Experimental: as §1, §2
# [6] = tested on: H460; assay: erlotinib sensitivity, apoptosis assay after 48 h; format: cell-based, human; details: NSCLC cell line H460, apoptosis assay after 48 h
# Experimental: as §1, §2
# [7] = tested on: PC-9; assay: erlotinib sensitivity, apoptosis assay after 48 h; format: cell-based, human; details: NSCLC cell line PC-9, apoptosis assay after 48 h
# Experimental: as §1, §2
# [8] = tested on: UKY-29; assay: erlotinib sensitivity, apoptosis assay after 48 h; format: cell-based, human; details: NSCLC cell line UKY-29, apoptosis assay after 48 h
# Experimental: as §1, §2
# [9] = tested on: H2122; assay: erlotinib sensitivity of validation lung cancer cell line; format: cell-based, human; details: lung cancer cell line H2122, validation set
# Experimental: as §2
# [10] = tested on: H322; assay: as above; format: cell-based, human; details: lung cancer cell line H322, validation set
# Experimental: as §2
# [11] = tested on: H820; assay: as above; format: cell-based, human; details: lung cancer cell line H820, validation set
# Experimental: as §2
# [12] = tested on: HCC827; assay: as above; format: cell-based, human; details: lung cancer cell line HCC827, validation set
# Experimental: as §2
# [13] = tested on: Aspc-1; details: pancreatic cancer cell line Aspc-1, validation set (Tzeng et al., 2007); cited from earlier work
# [14] = tested on: Bxpc-3; details: pancreatic cancer cell line Bxpc-3, validation set (Tzeng et al., 2007); cited from earlier work
# [15] = tested on: Mia PaCa-2; details: pancreatic cancer cell line Mia PaCa-2, validation set (Tzeng et al., 2007); cited from earlier work
# [16] = tested on: Panc-1; details: pancreatic cancer cell line Panc-1, validation set (Tzeng et al., 2007); cited from earlier work
structure (smiles),measurement,setting,value
C#Cc1cccc(Nc2ncnc3cc(OCCOC)c(OCCOC)cc23)c1 [erlotinib],sensitivity to erlotinib treatment,[1],Resistant
same,sensitivity to erlotinib treatment,[2],sensitive
same,sensitivity to erlotinib treatment,[3],Resistant
same,sensitivity to erlotinib treatment,[4],sensitive
same,sensitivity to erlotinib treatment,[5],sensitive
same,sensitivity to erlotinib treatment,[6],Resistant
same,sensitivity to erlotinib treatment,[7],sensitive
same,sensitivity to erlotinib treatment,[8],Resistant
same,sensitivity to erlotinib,[9],resistant
same,sensitivity to erlotinib,[10],sensitive
same,sensitivity to erlotinib,[11],resistant
same,sensitivity to erlotinib,[12],sensitive
same,sensitivity to erlotinib,[13],sensitive
same,sensitivity to erlotinib,[14],sensitive
same,sensitivity to erlotinib,[15],resistant
same,sensitivity to erlotinib,[16],resistant
